According to US6833137B1, “Protection against termites” (Bayer CropScience S.A., priority 1996, dated 2004):

Tested on: termites
Test: termite perforation test on gypsum block treated with compound A, separating two chambers
Format: in vivo
Conditions: after 21 days; gypsum block sprayed on both faces, 0.05 g/m^2 of compound A; 160 termites in upper chamber
Source text: A gypsum block is used which has a surface area of 30 cm^2 and a thickness of 0.8 cm and is covered on both its face with cardboard having a relative density of […] and a thickness of 0.2 mm.
A solution of compound A in propylene glycol is sprayed over both faces of this block in an amount such that the gypsum block contains 0.05 g/m^2 of compound A.
Two vertical cylindrical chambers with a diameter of 5 cm are separated using the gypsum block thus treated. The upper chamber comprises 160 termites placed in damp compost. The lower chamber comprises a piece of wood placed in moistened sand.
After 21 days, a mortality rate equal to 100% is observed.

## N#Cc1nn(-c2c(Cl)cc(C(F)(F)F)cc2Cl)c(N)c1[S+]([O-])C(F)(F)F (stereo not shown) [compound A, 1-[2,6-Cl2-4-CF3phenyl]-3-CN-4-[SO—CF3]-5-NH2pyrazole]
  mortality rate: 100%
